Experiment: Short-term, medium-term and autosampler stability in plasma samples and extracts
Type: physicochemical, human
Details: for Stability in plasma samples at −40 °C (time stable): tested 2 weeks, 1 and 2 months
Protocol: Sample stability was measured at two concentration levels (LQC and HQC) in triplicate. Long-term stability was evaluated at −40 °C for 2 weeks, 1 and 2 months; short-term stability was evaluated at room temperature (rt) under light exposure and with light protection and at 4 °C (light protection) for 1, 2, 3, 4, and 7 days. Autosampler stability was also assessed by storing extracts in the autosampler compartment at 10 °C for 1, 2, 3, 4, and 7 days.
The mean concentration values obtained from each measurement were compared to the concentrations measured at T0 before storage. Stability data are expressed as percentual difference from T0.

[1] = plasma samples stored at −40 °C

Row | Compound | Stability in plasma samples at −40 °C (time stable) [1] | other results
1 | N[C@@H](Cc1ccc(O)c(O)c1)C(=O)O [L-DOPA, Levodopa] | up to 2 months | –
2 | C[C@@](Cc1ccc(O)c(O)c1)(NN)C(=O)O [Carbidopa, carbidopa] | up to 1 months | –
3 | NC(CO)C(=O)NNCc1ccc(O)c(O)c1O (stereo not shown) [benserazide] | – | Stability of the compound (in words) (method development, conditions not stated): severe stability issues
4 | COC(=O)C(N)Cc1ccc(O)c(O)c1 (stereo not shown) [LDME, levodopa methyl ester] | – | Stability in plasma samples at −40 °C (in words) [1]: not satisfactory
